Assay results published in publication PMC6278385, “Preclinical Pharmacokinetics of C118P, a Novel Prodrug of Microtubules Inhibitor and Its Metabolite C118 in Mice, Rats, and Dogs” (Molecules, 2018).
Where two headings read alike, the source gives them in different places. One block for each compound: values may come before it.

Key:
[1] = Metabolic stability in liver microsomes; format: in vitro ADME, mice
Experimental: The in vitro metabolic stability of C118P and C118 were estimated in mice, rat, dog, monkey, and human liver microsomes (Research Institute for Liver Diseases Co. Ltd (Shanghai, China)). The incubation mixture contains C118P or C118, NADP (1.0 mM), G-6-P (10 mM), PDH (2 units/mL), MgCl2 (10 mM), and liver microsomes (mice, rats, dogs, monkeys, or humans, 1.0 mg protein/mL) in phosphate buffer. A total of 200 μL of the mixture was removed and quenched with 600 μL acetonitrile in an ice bath at 0, 15, 30, 60, 120, and 240 min after the addition of NADPH.
CLint, in vitro (the in vitro intrinsic clearance, Equation (1)) was calculated from the t1/2 of C118 disappearance, where Cprotein is the protein concentration during the incubation, and t1/2 was determined by the slope (k) of the log-linear regression analysis of the concentration versus time profiles; thus, t1/2 = ln2/k. […] The in vivo hepatic clearance (CLH, Equation (3)) was then calculated by using CLint and hepatic blood flow, Q ([…] mL·min^−1·kg^−1 in rats, dogs, monkey, and humans, respectively), in the well-stirred liver model disregarding all binding. The hepatic extraction ratio was calculated as CLH divided by Q. CLint, in vitro = (0.693/t1/2) × (1/Cprotein)(1) CLint = CLint, in vitro × (mg protein/g liver weight) × (gliver weight/kg body weight)(2) CLH = (Q × CLint)/(Q + CLint)(3)

[2] = Tissue distribution in tumor bearing mice; format: in vivo, nude mice (BALB/cA) implanted with NCI-H460 tumor
Experimental: The nude mice (BALB/cA) implanted with NCI-H460 tumor were provided by Shanghai Institute of Materia Medica. A total of 36 mice were divided into 9 groups with four animals in each group. After fasting overnight with free access to water, the mice were treated with 75 mg/kg C118P by i.v. The blood samples were collected at 2, 10, 20, 40 min, 1, 2, 4, 8, 12 h after treatment and the mice were anaesthetized and decapitated to obtain the blood and tumor tissue. Blood, brain, muscle, ovary, and lung from mice in the PK study were collected at 10 min, 1, 4, and 12 h. Tissues were cleaned by absorbent filter paper to remove the blood. Bloods were centrifuged at 10,000× g for 5 min. Each tissue (0.2 g) was homogenized with 2 mL water. The plasma samples and the homogenates were then processed and determined by the method described above. The concentration was determined by the calibration curve and the actual concentration was corrected by multiplying by 10 according to the dilution times. […]
4. The distribution of CA4P and CA4 in tumor bearing mice.
The nude mice (BALB/cA) implanted with NCI-H460 tumor were provided by Shanghai institute of Materia Medica. A total of 36 mice were divided into 9 groups with 4 animals in each group.
After fasted overnight with free access to water, the mice were treated with 75 mg/kg CA4P by i.v.
The blood samples were collected at 2, 10, 20, 40 min, 1, 2, 4, 8, 12 h after treatment and the mice were anaesthetized and decapitated to obtain the blood and tumor tissue. All procedure are same as C118P in the main text. The concentration was determined by the calibration curve and the actual concentration was corrected by multiplying by 10 according to the dilution times.

[3] = Tissue distribution in rats; format: in vivo; settings: for concentration at 10 min: both sexes, Sprague-Dawley (SD), rat, iv, 10 min after i.v. 20 mg/kg of C118P
Experimental: Eighteen rats (weight 220–260 g) with half males and half females were randomly assigned to there groups to carry out a tissue distribution study and fasted overnight. Blood and tissue samples, including the brain, skin, muscle, fat, testicle/ovary, pancreas, spleen, kidney, stomach, small intestine, heart, liver, lung, thymus, and thighbone were collected at 10 min, 1, and 4 h after intravenous administration (20 mg/kg). Blood was centrifuged for plasma samples. Tissue samples were rinsed with water to remove the blood and blotted dry with filter paper. An accurately-weighed amount of the tissue sample (0.2 g) or the entire organ for which weight less than 0.2 g was individually homogenized with EDTA solution (40 mg/mL, 2.0 mL). The left thigh bone was crushed and then soaked overnight in methanol-EDTA solution (1:1, v/v). A volume of 50 μL of homogenate or soak solution was prepared by protein precipitation and determined by the method described above. Tissue weights were used for calculating the concentrations (ng/g) of C118P and C118 in tissues.

[4] = PK in tumor-bearing nude mice after i.v. C118P; format: in vivo, nude mice (BALB/cA) implanted with NCI-H460 tumor; settings: for concentration at 2 min: read-out: C2min
Experimental: The nude mice (BALB/cA) implanted with NCI-H460 tumor were provided by Shanghai Institute of Materia Medica. A total of 36 mice were divided into 9 groups with four animals in each group. After fasting overnight with free access to water, the mice were treated with 75 mg/kg C118P by i.v. The blood samples were collected at 2, 10, 20, 40 min, 1, 2, 4, 8, 12 h after treatment and the mice were anaesthetized and decapitated to obtain the blood and tumor tissue. Blood, brain, muscle, ovary, and lung from mice in the PK study were collected at 10 min, 1, 4, and 12 h. Tissues were cleaned by absorbent filter paper to remove the blood. Bloods were centrifuged at 10,000× g for 5 min. Each tissue (0.2 g) was homogenized with 2 mL water. The plasma samples and the homogenates were then processed and determined by the method described above. The concentration was determined by the calibration curve and the actual concentration was corrected by multiplying by 10 according to the dilution times.
The area under the plasma-concentration-versus-time curve from 0 to infinite (AUC0-inf), the elimination half-life (t1/2), the systemic plasma clearance (CL) and the volume of distribution (V) were calculated by non-compartmental analysis with WinNonlin software v6.3 (Pharsight Corporation, St. Louis, MO 63144, USA) from the plasma concentration data of C118P and C118, respectively. The instantaneous concentrations after intravenous to rats (C30s) or dogs (C2min) were obtained directly from the observed data.

[5] = 0.17 h after i.v. 75 mg/kg of C118P, n = 4
[6] = 1 h after i.v. 75 mg/kg of C118P, n = 4
[7] = 4 h after i.v. 75 mg/kg of C118P, n = 4
[8] = 12 h after i.v. 75 mg/kg of C118P, n = 4
[9] = nude mice, tumor, i.v. C118P 75 mg/kg, n = 4
[10] = 0.17 h after i.v. 75 mg/kg of C118P, n = 4, in ng/g

Structure (SMILES): COc1cc(OC)cc(-c2nc[nH]c2-c2ccc(OC)c(OP(=O)([O-])[O-])c2)c1.[Na+].[Na+] [C118P]
stability in liver microsomes ([1]; mice liver microsomes (Figure S1)): quite stable | concentration in Lung [2, 5]: 130.2 ± 7.5 | concentration in Plasma [2, 5]: 5199.4 ± 2147.9 | concentration in Tumor [2, 5]: 115.8 ± 24.1 | concentration in muscle [2, 5]: 355.4 ± 64.1 | concentration in Plasma [2, 6]: 191.2 ± 60.5 | concentration in Tumor [2, 6]: 73.0 ± 15.0 | concentration in Plasma [2, 7]: 14.7 ± 8.4 | concentration in Tumor [2, 7]: 26.7 ± 0.0 | concentration in Plasma [2, 8]: 6.1 ± 0.0 | tissue concentration ([3]; 10 min, 1 h and 4 h after i.v. 20 mg/kg of C118P, LLOQ 50 ng/g for tissues): below or slightly higher than the LLOQ | half-life ([4]; BALB/cA nude, mouse, in vivo, iv, 75 mg/kg, nude mice, plasma, i.v. C118P 75 mg/kg, n = 4): 1.96 ± 1.07 h | half-life ([4]; BALB/cA nude, mouse, in vivo, iv, 75 mg/kg, nude mice, tumor, i.v. C118P 75 mg/kg, n = 4): 1.16 ± 0.76 h | AUC(0-inf) ([4]; BALB/cA nude, mouse, in vivo, iv, nude mice, plasma, i.v. C118P 75 mg/kg, n = 4, read-out: AUC0-inf): 13500 ng·h/mL | clearance ([4]; BALB/cA nude, mouse, in vivo, iv, nude mice, plasma, i.v. C118P 75 mg/kg, n = 4, read-out: CL (converted)): 96.9 mL/min/kg | concentration at 2 min ([4]; BALB/cA nude, mouse, in vivo, nude mice, plasma, i.v. C118P 75 mg/kg, n = 4): 106 µg/mL | concentration at 2 min ([4]; BALB/cA nude, mouse, in vivo, nude mice, tumor, i.v. C118P 75 mg/kg, n = 4): 292 ± 80.2 ng/g | V ([4]; nude mice, plasma, i.v. C118P 75 mg/kg, n = 4): 15,404.8 ± 7499.6 mL/kg | AUC(0-inf) [4, 9]: 217.7 ± 9.3 ng·h/g

CLint, in vitro ([1]; mice liver microsomes): 44.7 μL·min^−1·mg^−1 Protein | CLint ([1]; mice, scaled from CLint, in vitro): 115.3 mL/min/kg | half-life ([1]; mouse, mice liver microsomes, 1.0 mg protein/mL, C118 disappearance): 0.258 h | concentration in muscle [2, 5]: 15,202.5 ± 8814.7 | concentration in ovary [2, 5]: 26,723.8 ± 18,229.6 | concentration in Lung [2, 10]: 26,923.2 ± 4389.0 | concentration in Tumor [2, 10]: 14,563.3 ± 1989.9 | concentration in brain [2, 10]: 3562.8 ± 796.6 | concentration in Plasma ([2]; 0.17 h after i.v. 75 mg/kg of C118P, n = 4, in ng/mL): 26,048.0 ± 2429.7 | concentration in Lung [2, 6]: 1852.3 ± 929.3 | concentration in Plasma [2, 6]: 1730.0 ± 986.4 | concentration in Tumor [2, 6]: 12,998.1 ± 4132.3 | concentration in brain [2, 6]: 1250.7 ± 351.3 | concentration in muscle [2, 6]: 946.8 ± 390.6 | concentration in ovary [2, 6]: 3308.6 ± 2611.1 | concentration in Lung [2, 7]: 231.3 ± 181.7 | concentration in Plasma [2, 7]: 132.6 ± 56.8 | concentration in Tumor [2, 7]: 4969.8 ± 3414.7 | concentration in brain [2, 7]: 109.1 ± 22.0 | concentration in muscle [2, 7]: 136.4 ± 2.8 | concentration in Tumor [2, 8]: 1327.7 ± 1124.0 | tissue concentration in most tissues ([3]; 4 h after i.v. 20 mg/kg of C118P, LLOQ 50 ng/g for tissues): below or slightly higher than LLOQ | concentration at 10 min ([3]; heart, read-out: tissue concentration in heart): 6340 ± 4130 ng/g | concentration at 10 min ([3]; kidney, read-out: tissue concentration in kidney): 7640 ± 3410 ng/g | concentration at 10 min ([3]; lung, read-out: tissue concentration in lung): 12900 ng/g | concentration at 2 min ([4]; BALB/cA nude, mouse, intravenous, nude mice, plasma, i.v. C118P 75 mg/kg, n = 4): 42.5 µg/mL | concentration at 2 min ([4]; BALB/cA nude, mouse, intravenous, nude mice, tumor, i.v. C118P 75 mg/kg, n = 4): 13800 ng/g | half-life ([4]; BALB/cA nude, mouse, iv, nude mice, plasma, i.v. C118P 75 mg/kg, n = 4): 0.97 ± 0.1 h | AUC(0-inf) ([4]; BALB/cA nude, mouse, iv, nude mice, plasma, i.v. C118P 75 mg/kg, n = 4, read-out: AUC0-inf): 13400 ng·h/mL | half-life ([4]; BALB/cA nude, mouse, iv, nude mice, tumor, i.v. C118P 75 mg/kg, n = 4): 3.7 ± 1.48 h | clearance ([4]; BALB/cA nude, mouse, plasma, iv, 75 mg/kg, mice, in vivo, compared with extrapolated CLH, read-out: Observed CL): 88.8 mL/min/kg | AUC(0-inf) [4, 9]: 73,027.8 ± 24,951.2 ng × h/g
Structure (SMILES): COc1cc(OC)cc(-c2nc[nH]c2-c2ccc(OC)c(O)c2)c1 [C118]
